Reference: publication PMC13330650 (Matrix biology : journal of the International Society for …, 2025)
Changes are numbered by the printed parent chain.

Key:
[1] = biological target: T1, UGDH S316 phosphorylation by RSK2, S6K1, SGK1 (Homo sapiens, UniProt O60701); assay: in vitro kinase assay, phosphorylation of UGDH S316; assay type: biochemical; settings: in vitro kinase assays with RSK2, S6K1, SGK1; data not shown
T1 construct: made in house
T1 sequence (O60701 1-494): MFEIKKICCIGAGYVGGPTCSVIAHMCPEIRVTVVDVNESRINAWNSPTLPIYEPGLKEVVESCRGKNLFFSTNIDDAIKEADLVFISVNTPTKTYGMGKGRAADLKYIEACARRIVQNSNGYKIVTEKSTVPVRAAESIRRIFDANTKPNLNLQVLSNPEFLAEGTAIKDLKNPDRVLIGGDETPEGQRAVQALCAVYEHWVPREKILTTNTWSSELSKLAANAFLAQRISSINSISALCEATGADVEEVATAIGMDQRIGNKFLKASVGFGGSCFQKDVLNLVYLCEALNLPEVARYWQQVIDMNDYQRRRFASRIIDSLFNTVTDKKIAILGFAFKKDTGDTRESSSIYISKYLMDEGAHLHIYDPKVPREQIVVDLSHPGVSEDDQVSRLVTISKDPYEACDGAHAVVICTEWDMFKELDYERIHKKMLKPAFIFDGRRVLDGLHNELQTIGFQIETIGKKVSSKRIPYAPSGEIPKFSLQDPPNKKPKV
Procedure: Due to the location of UGDH S316 at the dimeric interface, we tested whether UGDH oligomeric status influenced the ability of each kinase to phosphorylate UGDH S316. In vitro kinase assays were performed to compare phosphorylation of UGDH S316 in the WT enzyme versus the UGDH T325D obligate dimer mutant. All three kinases produced a phosphorylation band in the dimeric UGDH T325D as expected.
Recombinant UGDH (100 μg) was incubated for 2 h at 30 °C with 1 μg of each kinase and either activated by addition of ATP (200 μM) or a conjugatable ATP analogue, γ-[(6-Azidohexyl)-imido]-ATP. Phosphorylated UGDH was detected by western analysis (using anti-pAkT substrate antibody) or by SDS-PAGE following reaction with tetramethylrhodamine (TAMRA) alkyne, copper, THPTA, and sodium ascorbate.

UGDH S316D [2] = biological target: T2, UGDH S316D (Homo sapiens, UniProt O60701, S316D); assay: UDP-Xyl inhibition of the catalytic reaction, UGDH S316D; assay type: biochemical; settings: sub-saturating UDP-Glc and NAD+, read-out: UDP-Xylose IC50
T2 construct: six-histidine; made in house; host or cells: E. coli BL21(DE3)
T2 sequence (O60701 1-494 S316D): T1 sequence (O60701 1-494) with S316D
From the text: (§1) Finally, we tested whether the S316 point mutants impacted inhibition of UGDH by UDP-xylose (UDP-Xyl), which is an endogenous competitive inhibitor of UGDH with nM affinity that causes a conformational change in the crystal structure exposing one of the dimer interfaces. We measured the concentration dependence of UDP-Xyl inhibition in the context of the catalytic reaction at sub-saturating UDP-Glc and NAD^+ and used the resultant curves to calculate the IC50 for UGDH S316A and S316D (Table 1). […] Binding of UDP-Xyl to UGDH independently of catalysis was measured by ITC. […]
(§2) Purified S316 mutants were compared to the UGDH WT enzyme using the following approaches as previously described. Enzymatic activity was evaluated by steady state kinetics in the presence and absence of the endogenous inhibitor UDP-Xylose to compare Michaelis constants and IC50 values. Intrinsic stability was assessed by thermal denaturation and quaternary structure was determined by size exclusion chromatography. Binding of UDP-Xylose to recombinant UGDH and mutants was measured by isothermal titration calorimetry using the MicroCal PEAQ-ITC (Malvern Panalytical). […] Binding heats were corrected for the heat of dilution and analyzed using the MicroCal PEAQ-ITC Analysis Software, employing a single-site binding model to determine Kd values.

UGDH S316A [3] = biological target: T3, UGDH S316A (Homo sapiens, UniProt O60701, S316A); assay: UDP-Xyl inhibition of the catalytic reaction, UGDH S316A; assay type: biochemical; settings: sub-saturating UDP-Glc and NAD+, read-out: UDP-Xylose IC50
T3 construct: six-histidine; made in house; host or cells: E. coli BL21(DE3)
T3 sequence (O60701 1-494 S316A): T1 sequence (O60701 1-494) with S316A
From the text: as §1, §2

UGDH S316D [4] = biological target: T2, UGDH S316D; assay: isothermal titration calorimetry, UDP-Xylose binding to UGDH S316D; settings: ITC
From the text: as §1, §2

UGDH WT [5] = biological target: T4, UGDH WT (Homo sapiens, UniProt O60701); assay: UDP-Xyl inhibition of the catalytic reaction, UGDH WT; assay type: biochemical; settings: sub-saturating UDP-Glc and NAD+, read-out: UDP-Xylose IC50
T4 construct: six-histidine; made in house; host or cells: E. coli BL21(DE3)
T4 sequence (O60701 1-494): T1 sequence (O60701 1-494)
From the text: as §1, §2

UGDH S316A [6] = biological target: T3, UGDH S316A; assay: isothermal titration calorimetry, UDP-Xylose binding to UGDH S316A; settings: ITC, single-site binding model
From the text: as §1, §2

UGDH WT [7] = biological target: T4, UGDH WT; assay: isothermal titration calorimetry, UDP-Xylose binding to UGDH WT; settings: ITC, single-site binding model
From the text: as §1, §2

O=c1ccn([C@@H]2O[C@H](COP(=O)(O)OP(=O)(O)O[C@H]3OC[C@@H](O)[C@H](O)[C@H]3O)[C@@H](O)[C@H]2O)c(=O)[nH]1 [UDP-Xylose]
effect of UDP-Xyl on phosphorylation of UGDH S316 [1]: did not impact phosphorylation
IC50 (UGDH S316D [2]): 250 ± 30 nM
IC50 (UGDH S316A [3]): 250 ± 60 nM
Kd for UGDH S316D relative to Kd values for UGDH WT and S316A (UGDH S316D [4]; higher for S316D): ≈ 2 fold
Kd (UGDH S316D [4]; UGDH S316D, single-site binding model): 150 ± 30 nM
IC50 (UGDH WT [5]): 220 ± 50 nM
Kd (UGDH S316A [6]): 71 ± 20 nM
Kd (UGDH WT [7]): 91 ± 35 nM
